Results taken from US6652479B2, “Method and apparatus for transcutaneous infusion of carbon dioxide for local relief of pain and other ailments” (Capnia, Inc., priority 2000, dated 2003).

How the values were obtained:
[1] = in vitro rate of CO2 absorption by water-soaked paper towel (funnel / oil bolus apparatus); assay type: physicochemical; details: 80-cm^2 area test surface, several tests
Method: To determine the inherent rate of absorption and diffusion of CO2 in a “passive” aqueous medium a preliminary in vitro experiment was performed. The apparatus and method employed for measuring the rate of CO2 absorption by a surface is illustrated in FIG. 1. The device was placed on a table top 150, and comprised a source of CO2 in the form of a cylinder 101 and a flow regulator 110, including a pressure regulator 112 and flow meter 113. Polyethylene tubing 115 of approximately 0.2 cm^2 lumen connected the cylinder 101 to a glass funnel 120 having a maximum area of 80 cm^2. An additional length of tubing 125 was used for measurement of changes in gas volume. This gas volume measurement means used in the experiment could be eliminated in a device intended to administer CO2 to a patient's skin surface. The entire system was purged of air by prolonged CO2 flow. The additional length of tubing 125 was purged first, then a bolus of low-volatility (forepump) oil 130 was inserted into its open end and the end plugged. […]
Next, the funnel was placed on test surface 140 of a 0.4-mm thick water-soaked paper towel having about the same thickness as skin. […] The observed initial rate of absorption determined from several such tests fell in the range 0.6-1.2 ml/min, and saturation occurred at 4-10 ml, for the 80-cm^2 area test surface. […]

[2] = tested on: skin on the right anterior thigh; assay: rate of transcutaneous absorption of gaseous CO2 into a human body (funnel on wet skin); assay type: in vivo
Method: To determine the inherent rate of absorption and diffusion of CO2 in a “passive” aqueous medium a preliminary in vitro experiment was performed. The apparatus and method employed for measuring the rate of CO2 absorption by a surface is illustrated in FIG. 1. The device was placed on a table top 150, and comprised a source of CO2 in the form of a cylinder 101 and a flow regulator 110, including a pressure regulator 112 and flow meter 113. Polyethylene tubing 115 of approximately 0.2 cm^2 lumen connected the cylinder 101 to a glass funnel 120 having a maximum area of 80 cm^2. An additional length of tubing 125 was used for measurement of changes in gas volume. This gas volume measurement means used in the experiment could be eliminated in a device intended to administer CO2 to a patient's skin surface. The entire system was purged of air by prolonged CO2 flow. The additional length of tubing 125 was purged first, then a bolus of low-volatility (forepump) oil 130 was inserted into its open end and the end plugged. The funnel 120 was then purged with its open end resting on a portion of the selected test surface 140 immediately adjacent to the portion to be tested, and with the purge flow escaping at its edge. At zero time the purge flow was terminated, the plug in the tube 125 end was removed and the funnel was slid onto the test portion of the surface without breaking the seal between the funnel edge and the wet surface. The displacement of the oil bolus 130 within the 0.20 cm^2 lumen of the tube 125 was then observed as CO2 gas was removed from the closed system via absorption in the surface 140; i.e., each cm of displacement corresponded to absorption of 0.20 cc of gas by 80 cm^2 of test surface.
An area of skin on the right anterior thigh sufficiently large for two positions of the funnel 120 applicator was washed thoroughly and soaked with water for fifteen minutes. The funnel 120 was purged of air by prolonged CO2 flow (for about 10 minutes) while seated on the wet skin in the upper thigh position 160, and then was slid to the lower thigh position 170 at zero time. […] In other words, it appeared that less than <0.1 ml of gas was absorbed. […] Therefore, the inventors concluded that some quantity of CO2, sufficient to cause the observed vascular effects, must have diffused into the skin. Therefore, the inventors continued with their experiments to determine if a transcutaneous application of CO2 would reduce local pain.

[3] = tested on: allergic rhinitis attack; assay: treatment of allergic rhinitis by carbonated water nasal spray; assay type: in vivo, human; details: carbonated water spray and gaseous CO2 infusion used alternately over a day, one subject
Excerpt: Because of the observed similarity of the physiological effects of gaseous CO2 and a […] solution (carbonated water) applied to the skin, the inventors believed that a […] solution might be effective for treatment of upper respiratory indications for which infusion of gaseous CO2 is effective. With reference to FIG. 5, to test this hypothesis, a 70-ml commercially marketed plastic “squeeze” bottle 510 for dispensing a physiological saline spray was 3⁄4 filled with fresh effervescing carbonated water. The carbonated water spray was then sprayed into the nose of a subject 520 who was suffering a mild allergic rhinitis attack. […] During the course of a day as allergic rhinitis attacks reoccurred, the carbonated water spray and gaseous CO2 infusion were used alternately and their relative effectiveness assessed. […] The disagreeable aspects cited were the discomfort associated with a liquid being sprayed up the nose and the messiness of the effluent liquid from the nose after the spray. Nevertheless, the carbonated nasal spray is a distinct alternative for treatment of the upper respiratory distress indications, and shares many of the advantages of a gaseous CO2 infusion treatment including effectiveness, ease of use, rapid relief on demand, unlimited dose, low cost, and freedom from aftereffects and other contraindications associated with the use of drugs. […]

[4] = tested on: muscular-skeletal pain conditions (cervico-cranial syndrome, cervico-brachial syndrome, lumbalgia); details: cited from earlier work
[5] = after subcutaneous injection of 100-200 ml CO2 gas
[6] = of 335 patients treated, 100-200 ml CO2 gas injected under the skin, 10-15 injections over 2-5 weeks

absorbed gas volume at saturation [1]: 4 to 10 mL | initial rate of absorption of gaseous CO2 [1]: 0.6 to 1.2 mL/min | aftereffects ([2]; gaseous CO2 on wet skin): no observed aftereffects | gas absorbed by the skin ([2]; wet skin, 80 cm^2 funnel, about 10 minutes, several tests): < 0.1 mL
SMILES: O=C=O [CO2, carbon dioxide]
skin reaction over region in contact with CO2 ([2]; after about 10 minutes contact with gaseous CO2): a hyperemia was observed | time for reddening to develop in contact with CO2 ([2]; gaseous CO2 on wet skin): three to five | time for reddening to subside after removal of the CO2 ([2]; gaseous CO2 on wet skin): a similar period | relative effectiveness for relief and suppression of allergic rhinitis symptoms [3]: equally effective | diameter of gas emphysemum at injection site [4, 5]: ~8 cm | skin reaction at the injection site [4, 5]: mild hyperemia | time for gas emphysemum and hyperemia to disappear after the injection [4, 5]: 3 to 5 min | patients improved with some remaining distress [4, 6]: 157 | patients who became difficulty-free or were substantially improved [4, 6]: 171 | patients with no improvement [4, 6]: 7 | number of treatments after which improvement of the indicated disorder occurred ([4]; subcutaneous injection of 100-200 ml CO2 gas daily or twice-weekly): 4-5 treatments
